Some test systems named below: ACHN; HL-60; KM12; NCI-H226; NCI-H522; OVCAR-4; OVCAR-5; PC-3; SF-268; SK-MEL-28; SK-MEL-5; SW-620; T47D; U-251; UACC-257; MDA-MB-231.
What all share (assay): inhibition of tumour cell growth, NCI panel, 48 h

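How tested: cells in 96-well plates exposed to compound for 48 hours at five concentrations. At the GI50, growth is halved.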 Active and inactive are the calls of the source. Cut-off read from the data, not from the text of the source: active = GI50 up to about 1.1 µM and inactive = higher. Where only a bound is given, the exact number is not on record here.

Consider `CC1(C)/C(=N\Nc2ccc([N+](=O)[O-])cc2[N+](=O)[O-])C2CCC1C2` (configuration not stated), for which the GI50 in the assay with ACHN was 54 µM (inactive); in the assay on HL-60, > 100 µM (inactive); in the assay with KM12 it was 30.1 µM (inactive); with NCI-H226 it was > 100 µM (inactive); with NCI-H522, > 100 µM (inactive); in the assay on OVCAR-4, 84.5 µM (inactive). For the same compound, the GI50 with OVCAR-5 was > 100 µM (inactive); in the assay on PC-3, > 100 µM (inactive); in the assay with SF-268 it was > 100 µM (inactive); in the assay with SK-MEL-28, > 100 µM (inactive); with SK-MEL-5 it was 4.2 µM (inactive); in the assay with SW-620, > 100 µM (inactive). The GI50 is > 100 µM (inactive) in the assay on T47D, > 100 µM (inactive) with U-251 and 19.3 µM (inactive) with UACC-257.

On to `O=c1cc(NNc2ccc(F)cc2)[nH]c(=O)[nH]1`, for which the GI50 was 17.9 µM (inactive) in the assay on ACHN; 6.65 µM (inactive) in the assay with HL-60; 11.7 µM (inactive) with KM12; 17.1 µM (inactive) in the assay with MDA-MB-231; 24.6 µM (inactive) in the assay on NCI-H226; 9.68 µM (inactive) in the assay with OVCAR-4. Moreover, the GI50 is 19.2 µM (inactive) in the assay on OVCAR-5; 16.6 µM (inactive) with PC-3; 20 µM (inactive) with SF-268; 18.3 µM (inactive) in the assay with SK-MEL-28; 25.7 µM (inactive) in the assay with SK-MEL-5; 17.5 µM (inactive) in the assay on SW-620. The GI50 was 27 µM (inactive) with T47D, 25.6 µM (inactive) in the assay with U-251 and > 100 µM (inactive) in the assay on UACC-257.

Regarding `CCOc1c2c(cc3c1C(=O)c1c(OC)cccc1C3=O)C=C(OC)CC2`, the GI50 in the assay with ACHN was > 25 µM (inactive); in the assay on HL-60, 5.62 µM (inactive); in the assay with KM12, 10.6 µM (inactive); with MDA-MB-231 it was > 25 µM (inactive); with NCI-H226, > 25 µM (inactive); with NCI-H522, 10.4 µM (inactive). In addition, the GI50 in the assay with OVCAR-4 was > 25 µM (inactive); in the assay with OVCAR-5, > 25 µM (inactive); in the assay with PC-3, 17.8 µM (inactive); in the assay with SF-268 it was > 25 µM (inactive); in the assay on SK-MEL-28, > 25 µM (inactive); in the assay with SK-MEL-5 it was 10.1 µM (inactive). The GI50 in the assay on SW-620 was 9.98 µM (inactive); in the assay with U-251, 22.3 µM (inactive); in the assay with UACC-257, > 25 µM (inactive).

For `CCOC(=O)NC(C(=O)OCC)C(F)(F)F` (configuration not stated), the GI50 is > 100 µM (inactive) in the assay on ACHN; 23.9 µM (inactive) with HL-60; > 100 µM (inactive) in the assay with KM12; > 100 µM (inactive) in the assay on MDA-MB-231; > 100 µM (inactive) in the assay on OVCAR-5; > 100 µM (inactive) with PC-3. The GI50 in the assay on SF-268, with SK-MEL-28, with SK-MEL-5, with SW-620, with U-251 and in the assay with UACC-257 was > 100 µM (inactive) each time.

Consider `O=C(Nc1ccccn1)/C(=C\C(=O)c1ccc(Cl)cc1)Nc1ccccc1`, for which the GI50 with HL-60, in the assay with KM12, in the assay with MDA-MB-231, with OVCAR-4, in the assay with PC-3 and in the assay with SF-268 was > 10 µM (inactive) throughout. The GI50 in the assay on SK-MEL-28, in the assay on SK-MEL-5, in the assay with SW-620, in the assay with T47D and in the assay with UACC-257 was > 10 µM (inactive) throughout.

With `CCOC(=O)CSc1[nH]c(NC(=S)Nc2ccccc2)c(C(N)=O)c1C(N)=O`, the GI50 in the assay on HL-60 is 2.32 µM (inactive); in the assay with KM12, > 10 µM (inactive); in the assay with MDA-MB-231, > 10 µM (inactive); in the assay on OVCAR-4 it was > 10 µM (inactive); in the assay with PC-3, > 10 µM (inactive); in the assay on SF-268 it was > 10 µM (inactive). For the same compound, the GI50 in the assay with SK-MEL-28, in the assay with SK-MEL-5, with SW-620, in the assay with T47D and in the assay with UACC-257 was > 10 µM (inactive) throughout.

As for `O=c1[nH]nc(-c2ccccc2)c2[nH]c3c4ccccc4ccc3c12`, the GI50 is 1.69 µM (inactive) in the assay on ACHN; 0.548 µM (active) in the assay on HL-60; 0.692 µM (active) in the assay on KM12; 4.14 µM (inactive) in the assay with NCI-H226; 0.753 µM (active) in the assay on NCI-H522; 1.76 µM (inactive) with OVCAR-4. The GI50 was 1.28 µM (inactive) in the assay on PC-3; 1.33 µM (inactive) in the assay on SF-268; 0.587 µM (active) with SK-MEL-5; 0.656 µM (active) with SW-620; 5.4 µM (inactive) in the assay with T47D; 0.885 µM (active) with U-251. Further, the GI50 in the assay with UACC-257 is 5.82 µM (inactive).

With `COc1ccc(-c2c(C(C)=O)c(-c3ccccc3)n(C3OC(CO)C(O)C(O)C3O)c(=S)c2C#N)cc1` (configuration not stated), the GI50 in the assay on ACHN, in the assay with HL-60, in the assay with KM12, in the assay with MDA-MB-231, with NCI-H226 and with NCI-H522 was > 100 µM (inactive) in each case. Moreover, the GI50 in the assay on OVCAR-4, with OVCAR-5, in the assay on SF-268, with SK-MEL-28, in the assay with SK-MEL-5 and in the assay with SW-620 was > 100 µM (inactive) throughout. Besides, the GI50 with T47D, in the assay with U-251 and in the assay on UACC-257 was > 100 µM (inactive) each time.

With `Cc1ccc(S(=O)(=O)N2CCNCCN(S(=O)(=O)c3ccc(C)cc3)CCNCC2)cc1`, the GI50 was 28.9 µM (inactive) with ACHN; 10.2 µM (inactive) in the assay with HL-60; 20.8 µM (inactive) in the assay with KM12; 23.7 µM (inactive) in the assay with MDA-MB-231; 19.3 µM (inactive) in the assay with NCI-H226; 16.6 µM (inactive) with NCI-H522. Besides, the GI50 in the assay on OVCAR-4 is 32.2 µM (inactive); in the assay on OVCAR-5, 43.4 µM (inactive); in the assay with SF-268 it was 21.8 µM (inactive); in the assay on SK-MEL-28, 18.5 µM (inactive); with SK-MEL-5, 16.3 µM (inactive); with SW-620 it was 35.5 µM (inactive). Further, the GI50 with T47D is 12.3 µM (inactive); with U-251 it was 20.2 µM (inactive); with UACC-257, 16.4 µM (inactive).

For `O=[N+]([O-])c1cc(Cl)cnc1Br`, the GI50 in the assay with ACHN is 2.09 µM (inactive); in the assay with HL-60 it was 3.44 µM (inactive); with KM12, 4.03 µM (inactive); in the assay with MDA-MB-231 it was 3.45 µM (inactive); in the assay with NCI-H226, 2.61 µM (inactive); with OVCAR-4, 2.28 µM (inactive). For the same compound, the GI50 with OVCAR-5 is 3.27 µM (inactive); in the assay on PC-3 it was 7.53 µM (inactive); in the assay on SF-268, 2.64 µM (inactive); in the assay with SK-MEL-28, 3.33 µM (inactive); in the assay on SK-MEL-5, 2.4 µM (inactive); in the assay with SW-620, 3.42 µM (inactive). Moreover, the GI50 in the assay with T47D is 3.1 µM (inactive); with U-251, 2.16 µM (inactive); in the assay with UACC-257 it was 9.48 µM (inactive).

For the compound `CN1CCC2(CC1)SSC1(CCN(C)CC1)S2`, the GI50 in the assay with ACHN, in the assay with HL-60, in the assay with KM12, in the assay on MDA-MB-231, in the assay on OVCAR-4 and in the assay on OVCAR-5 was > 100 µM (inactive) each time. Also, the GI50 is > 100 µM (inactive) in the assay with PC-3; > 100 µM (inactive) in the assay on SK-MEL-28; 60.5 µM (inactive) in the assay on SK-MEL-5; > 100 µM (inactive) with SW-620; > 100 µM (inactive) in the assay with U-251; > 100 µM (inactive) in the assay on UACC-257.

`COI1NC(=O)c2ccccc21`: the GI50 was > 100 µM (inactive) with ACHN; > 100 µM (inactive) with HL-60; > 100 µM (inactive) in the assay with KM12; > 100 µM (inactive) with MDA-MB-231; > 100 µM (inactive) with NCI-H226; 74 µM (inactive) with NCI-H522. For the same compound, the GI50 in the assay on OVCAR-4, with OVCAR-5, in the assay on PC-3, in the assay on SF-268, in the assay on SK-MEL-28 and with SK-MEL-5 was > 100 µM (inactive) in each case. Moreover, the GI50 with SW-620 and with U-251 was > 100 µM (inactive) in each case.

For `CC1CC/C(=C\c2ccc(Cl)cc2)C2OC(N)=C(C#N)C(c3ccc(Cl)cc3)=C12` (configuration not stated), the GI50 in the assay on ACHN is 16.4 µM (inactive); with HL-60, 2.88 µM (inactive); in the assay on KM12, 11.7 µM (inactive); in the assay with MDA-MB-231 it was 10.4 µM (inactive); in the assay on NCI-H226 it was 11 µM (inactive); in the assay with OVCAR-5, 15.9 µM (inactive). Besides, the GI50 was 11.9 µM (inactive) in the assay with PC-3; 13.2 µM (inactive) in the assay on SF-268; 16.1 µM (inactive) in the assay on SK-MEL-28; 15.4 µM (inactive) with SK-MEL-5; 21.4 µM (inactive) in the assay with SW-620; 0.442 µM (active) in the assay with T47D. The results for the GI50 in the assay with U-251 and in the assay with UACC-257 were 15.2 µM (inactive) and 31.6 µM (inactive), respectively.

Regarding `CCOC(=O)/C(C#N)=C/c1ccc(SCc2ccco2)c([N+](=O)[O-])c1`, the GI50 in the assay on ACHN, in the assay on HL-60, in the assay with KM12, in the assay with MDA-MB-231, with NCI-H226 and with NCI-H522 was > 100 µM (inactive) each time. Further, the GI50 in the assay on OVCAR-4, in the assay with OVCAR-5, in the assay on PC-3, in the assay on SF-268, in the assay with SK-MEL-28 and in the assay on SK-MEL-5 was > 100 µM (inactive) throughout. Moreover, the GI50 in the assay on SW-620, in the assay on U-251 and in the assay on UACC-257 was > 100 µM (inactive) each time.
